From patent US20050009886A1, “1,4-Dihydropyridine derivative with a guaiacoxypropanolamine and/or phenoxypropanolamine moiety” (priority 1998, published 2005)

Key:
[1] = target: T1, atrial β 1-receptor (Rattus norvegicus, UniProt P18090); assay type: binding, Wistar rat; conditions: 25° C., 60 minutes
T1 construct: The heart and lung of rat were removed and placed in cold Tris buffer; from tissue; host or cells: membrane preparation from rat atria

[2] = tested on: isolated atria; assay: Direct effect (intrinsic sympathomimetic activity) on reserpine pretreated isolated atria; parameters: species or system Wistar rat
Protocol: Wistar rats of weight between 200˜300 gm were used. 18˜24 hours before the experiment, 5 mg/kg of reserpine was injected via abdominal cavity to remove all endogenous catecholamines. Prior experiment, Wistar rats were sacrificed, the heart was immediately removed and placed in Kreb's solution aerated with air mixture and maintained at room temperature. The right and left atria were carefully separated.

[3] = tested on: right atrium; conditions: 10^−7, 10^−6, and 10^−5M; CaCl2 3.0, 6.0, 9.0 mM
Protocol: The right atrium of the rats was allowed to equilibrate in Kreb's solution for at least 60 minutes. When the spontaneous beating rate had reached a certain stability, CaCl2 of different concentrations (3.0, 6.0, and 9.0 mM) were cumulatively administered, and the changes in the spontaneous beating of right atrium were observed. […] 30 minutes later, different concentrations (3.0, 6.0, and 9.0 mM) were cumulatively administered, and the changes in the spontaneous beating of right atrium were observed again.

[4] = tested on: Calcium; assay: Calcium antagonism (pKCa^−1, Table 2)
[5] = target: cerebral cortex calcium ion receptors; conditions: 25° C., 60 minutes
[6] = tested on: A7r5 cells; conditions: 10^−8, 10^−7, 10^−6M for 5 minutes

T1 sequence (P18090 whole entry): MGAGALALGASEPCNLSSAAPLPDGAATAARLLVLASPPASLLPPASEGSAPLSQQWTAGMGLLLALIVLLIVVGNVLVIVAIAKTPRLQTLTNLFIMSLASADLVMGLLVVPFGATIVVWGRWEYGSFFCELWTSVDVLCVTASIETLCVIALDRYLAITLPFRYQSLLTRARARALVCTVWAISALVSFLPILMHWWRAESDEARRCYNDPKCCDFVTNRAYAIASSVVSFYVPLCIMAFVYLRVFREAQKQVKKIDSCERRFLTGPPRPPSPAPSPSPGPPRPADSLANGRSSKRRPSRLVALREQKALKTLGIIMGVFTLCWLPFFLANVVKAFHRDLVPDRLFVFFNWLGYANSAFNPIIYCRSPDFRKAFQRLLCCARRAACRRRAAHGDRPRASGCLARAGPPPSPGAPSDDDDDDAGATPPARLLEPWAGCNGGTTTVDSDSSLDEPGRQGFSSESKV

How did the “[^3H] CGP-12177 (β1) pKi” value [1] turn out when `COC(=O)C1=C(C)NC(C)=C(C(=O)OC)C1c1ccc(OCC(O)CNC(C)(C)C)c(OC)c1` (centres unmarked) [Compound 1] was run?
The value was 6.61 ± 0.46.

And the “direct effect on right atrium beating rate and left atrium isometric contractions” value ([2]; cumulative administration, reserpine pretreated)?
The value was “could not increase the beating rate and isometric contractions”.

And the “concentration with blocking effect on beating rate and isometric contractions” value ([2]; reserpine pretreated atria)?
The value was ≥ 10^−5 M.

And the “effect on increased atrial beating rate induced by CaCl2” value [3]?
The value was “blocked”.

And the “Calcium Antagonism PKCa^−1” value [4]?
Its value is 7.82 ± 0.49.

And the “[^3H]nitrendipine Ca^2+ PKi” value [5]?
Its value is 7.86 ± 0.38.

And the “calcium ion influx effect of BayK8644” value ([6]; 10 μM BayK8644)?
Its value is “significantly blocked”.

And the “calcium ion influx effect of KCl” value ([6]; 50 mM KCl)?
The value was “significantly blocked”.
